Source: PubChem BioAssay AID330 (DTP/NCI, 2004)
Several values for one entry are separate records, joined by “and”; a condition that tells them apart may be missing. Equal entries are not always repeated. Inconclusive results and toxic doses are left out.

System: P388 leukemia ip, CD2F1 mice, survival T/C
Test: NCI In Vivo Anticancer Drug Screen. Data for tumor model P388 Leukemia (intraperitoneal) in CD2F1 (CDF1) mice
Settings: endpoint: median survival time, higher = longer survival
Summary of the method: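 Mice carrying the transplanted tumor received test compound or vehicle. Survival was recorded in each group, and the value is the treated-group measurement divided by that of the vehicle-treated control group.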

[1] = dose: 100.0 mg/kg/injection, schedule: Q01DX009 (ip), vehicle: saline with Tween-80
[2] = dose: 200.0 mg/kg/injection, schedule: Q01DX009 (ip), vehicle: saline with Tween-80
[3] = dose: 400.0 mg/kg/injection, schedule: Q01DX009 (ip), vehicle: saline with Tween-80
[4] = dose: 60.0 mg/kg/injection, schedule: Q01DX005 (ip), vehicle: saline with Tween-80
[5] = dose: 120.0 mg/kg/injection, schedule: Q01DX005 (ip), vehicle: saline with Tween-80
[6] = dose: 240.0 mg/kg/injection, schedule: Q01DX005 (ip), vehicle: saline with Tween-80

For `CN(Cc1cnc2nc(N)nc(N)c2n1)c1ccc(C(=O)NC(CCC(=O)NC(CCC(=O)O)C(=O)O)C(=O)O)cc1` (stereo not drawn), the T/C (dose: 1.56 mg/kg/injection, schedule: Q01DX009 (ip), vehicle: Klucel (hydroxypropylcellulose) (HPC)) was 184 % of control and 218 % of control, the T/C (dose: 3.12 mg/kg/injection, schedule: Q01DX009 (ip), vehicle: Klucel (hydroxypropylcellulose) (HPC)) was 214 % of control and 94 % of control and the T/C (dose: 6.25 mg/kg/injection, schedule: Q01DX009 (ip), vehicle: Klucel (hydroxypropylcellulose) (HPC)) was 88 % of control.

With `O=c1[nH]cnc2cc(N3CCCCC3)c([N+](=O)[O-])cc12` the T/C (dose: 100.0 mg/kg/injection, schedule: Q04DX003 (ip), vehicle: saline with Tween-80) was 102 % of control, the T/C (dose: 200.0 mg/kg/injection, schedule: Q04DX003 (ip), vehicle: saline with Tween-80) was 94 % of control and the T/C (dose: 400.0 mg/kg/injection, schedule: Q04DX003 (ip), vehicle: saline with Tween-80) was 94 % of control.

In the case of `Cc1ccc(NC(=O)c2ccc([N+](=O)[O-])cc2)c(C)c1`, the T/C [1] was 100 % of control, the T/C [2] was 100 % of control and the T/C [3] was 110 % of control.

In the case of `CN(C)Cc1ccc(C(C)(C)C)cc1Br`, the T/C (dose: 12.5 mg/kg/injection, schedule: Q01DX009 (ip), vehicle: water) was 97 % of control, the T/C (dose: 25.0 mg/kg/injection, schedule: Q01DX009 (ip), vehicle: water) was 95 % of control and the T/C (dose: 50.0 mg/kg/injection, schedule: Q01DX009 (ip), vehicle: water) was 99 % of control. The T/C (dose: 100.0 mg/kg/injection, schedule: Q01DX009 (ip), vehicle: water) was 95 % of control and the T/C (dose: 200.0 mg/kg/injection, schedule: Q01DX009 (ip), vehicle: water) was 89 % of control.

`O=c1c(OCc2ccccc2)cccn1Cc1ccccc1` was tested, and the T/C (dose: 25.0 mg/kg/injection, schedule: Q01DX009 (ip), vehicle: distilled water + Tween-80) was 92 % of control, the T/C (dose: 50.0 mg/kg/injection, schedule: Q01DX009 (ip), vehicle: distilled water + Tween-80) was 95 % of control and the T/C (dose: 100.0 mg/kg/injection, schedule: Q01DX009 (ip), vehicle: distilled water + Tween-80) was 100 % of control. The T/C (dose: 200.0 mg/kg/injection, schedule: Q01DX009 (ip), vehicle: distilled water + Tween-80) was 95 % of control and the T/C (dose: 400.0 mg/kg/injection, schedule: Q01DX009 (ip), vehicle: distilled water + Tween-80) was 101 % of control.

In the case of `CC(=O)OC1CSS(=O)CC1OC(C)=O` (stereo not drawn), the T/C (dose: 100.0 mg/kg/injection, schedule: Q04DX002 (ip), vehicle: saline) was 100 % of control and the T/C (dose: 200.0 mg/kg/injection, schedule: Q04DX002 (ip), vehicle: saline) was 109 % of control.

`CCOC(=O)/C(C#N)=C(\CC)c1cc(Cl)cc(Cl)c1O` was tested, and the T/C [4] was 100 % of control, the T/C [5] was 90 % of control and the T/C [6] was 96 % of control.

In the case of `CCCN(CCC)c1ccc(N=Nc2ccccc2C(=O)O)cc1`, the T/C (dose: 50.0 mg/kg/injection, schedule: Q01DX009 (ip), vehicle: saline with Tween-80) was 102 % of control, the T/C [1] was 105 % of control and the T/C [2] was 112 % of control. For the same molecule, the T/C [3] was 110 % of control.

`NS(=O)(=O)c1ccc(N=Cc2cnc3ccccc3n2)cc1` was tested, and the T/C (dose: 5.0 mg/kg/injection, schedule: Q01DX009 (ip), vehicle: saline) was 97 % of control, the T/C (dose: 10.0 mg/kg/injection, schedule: Q01DX009 (ip), vehicle: saline) was 101 % of control and the T/C (dose: 20.0 mg/kg/injection, schedule: Q01DX009 (ip), vehicle: saline) was 97 % of control.

For `Cc1ccccc1NC(=O)OCC(CCl)(CCl)CCl`, the T/C (dose: 100.0 mg/kg/injection, schedule: Q04DX002 (ip), vehicle: Klucel (hydroxypropylcellulose) (HPC)) was 99 % of control, the T/C (dose: 200.0 mg/kg/injection, schedule: Q04DX002 (ip), vehicle: Klucel (hydroxypropylcellulose) (HPC)) was 96 % of control and the T/C (dose: 400.0 mg/kg/injection, schedule: Q04DX002 (ip), vehicle: Klucel (hydroxypropylcellulose) (HPC)) was 89 % of control.

`COc1cc2c(cc1O)-c1[nH]ncc1CCC2` was tested, and the T/C (dose: 100.0 mg/kg/injection, schedule: Q04DX003 (ip), vehicle: saline) was 101 % of control, the T/C (dose: 200.0 mg/kg/injection, schedule: Q04DX003 (ip), vehicle: saline) was 97 % of control and the T/C (dose: 400.0 mg/kg/injection, schedule: Q04DX003 (ip), vehicle: saline) was 102 % of control.

With `COc1ccc(C(C)c2cc3c(cc2OC(C)=O)OCO3)cc1` (stereo not drawn) the T/C (dose: 50.0 mg/kg/injection, schedule: Q01DX005 (ip), vehicle: saline with Tween-80) was 100 % of control, the T/C (dose: 100.0 mg/kg/injection, schedule: Q01DX005 (ip), vehicle: saline with Tween-80) was 87 % of control and the T/C (dose: 200.0 mg/kg/injection, schedule: Q01DX005 (ip), vehicle: saline with Tween-80) was 93 % of control.

With `O=C1CC(=O)N2C(=O)CC(=O)N12` the T/C [4] was 99 % of control, the T/C [5] was 103 % of control and the T/C [6] was 97 % of control.
